According to ChEMBL document CHEMBL3608278 (J Med Chem, 2015):

Columns and labels:
[1] = target: T1, Potassium voltage-gated channel subfamily A member 3 (Homo sapiens, UniProt P22001); design: species or system Blood
[2] = target: T1, Potassium voltage-gated channel subfamily A member 3; format: cell-based, CHO-K1
[3] = target: T1, Potassium voltage-gated channel subfamily A member 3; assay: cell-based; design: species or system Blood

T1 sequence (P22001 whole entry): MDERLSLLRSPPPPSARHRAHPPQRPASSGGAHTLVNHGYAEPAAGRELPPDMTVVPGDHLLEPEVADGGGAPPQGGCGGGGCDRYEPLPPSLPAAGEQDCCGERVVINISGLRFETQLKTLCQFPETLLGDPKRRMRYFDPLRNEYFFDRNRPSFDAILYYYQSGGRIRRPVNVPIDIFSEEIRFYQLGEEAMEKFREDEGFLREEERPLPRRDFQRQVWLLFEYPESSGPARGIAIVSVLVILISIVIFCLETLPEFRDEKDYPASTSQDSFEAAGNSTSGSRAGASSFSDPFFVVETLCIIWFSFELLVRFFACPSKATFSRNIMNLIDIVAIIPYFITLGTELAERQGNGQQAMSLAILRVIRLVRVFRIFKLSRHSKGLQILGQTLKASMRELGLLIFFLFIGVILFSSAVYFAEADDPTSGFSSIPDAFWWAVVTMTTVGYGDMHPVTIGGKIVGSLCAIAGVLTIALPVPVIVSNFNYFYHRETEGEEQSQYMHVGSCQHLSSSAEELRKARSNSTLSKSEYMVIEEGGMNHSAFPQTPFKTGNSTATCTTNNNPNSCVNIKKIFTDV

IC50 [1]	IC50 [2]	IC50 [3]	SMILES
0.363 nM	0.154 nM	0.257 nM	CC[C@H](C)[C@@H]1NC(=O)[C@@H](NC(=O)[C@H](CO)NC(=O)[C@@H](N)CCCNC(=N)N)CSSC[C@@H](C(=O)O)NC(=O)[C@H]([C@@H](C)O)NC(=O)CNC(=O)[C@@H]2CSSC[C@@H]3NC(=O)[C@H](CCC(N)=O)NC(=O)[C@H](Cc4ccccc4)NC(=O)[C@H](C)NC(=O)[C@H](CCCCN)NC(=O)[C@H](CSSC[C@H](NC(=O)[C@H](Cc4ccccc4)NC(=O)[C@H](CO)NC(=O)[C@H](CC(C)C)NC(=O)[C@H](CCCNC(=N)N)NC(=O)[C@H](Cc4ccc(O)cc4)NC(=O)[C@H](CCCCN)NC(=O)[C@H](CCSC)NC(=O)[C@H](CO)NC(=O)[C@H](Cc4cnc[nH]4)NC(=O)[C@H](CCCCN)NC3=O)C(=O)N[C@@H](CCCNC(=N)N)C(=O)N[C@@H](CCCCN)C(=O)N[C@@H]([C@@H](C)O)C(=O)N2)NC(=O)[C@H](CCCNC(=N)N)NC(=O)[C@H](CO)NC(=O)[C@H](CCCCN)NC(=O)[C@@H]2CCCN2C(=O)[C@H]([C@@H](C)CC)NC(=O)[C@H]([C@@H](C)O)NC(=O)[C@H](CC(=O)O)NC1=O
9.55 nM	1.44 nM	28.9 nM	CC[C@H](C)[C@@H]1NC(=O)[C@@H](NC(=O)[C@H](CO)NC(=O)[C@@H](N)CCCNC(=N)N)CSSC[C@@H](C(=O)O)NC(=O)[C@H]([C@@H](C)O)NC(=O)CNC(=O)[C@@H]2CSSC[C@@H]3NC(=O)[C@H](Cc4cccc5ccccc45)NC(=O)[C@H](Cc4ccccc4)NC(=O)[C@H](C)NC(=O)[C@H]([C@@H](C)O)NC(=O)[C@H](CSSC[C@H](NC(=O)[C@H](Cc4ccccc4)NC(=O)[C@H](CO)NC(=O)[C@H](CC(C)C)NC(=O)[C@H](CCCNC(=N)N)NC(=O)[C@H](Cc4ccc(O)cc4)NC(=O)[C@H](CCCCN)NC(=O)[C@H](CCSC)NC(=O)[C@H](CO)NC(=O)[C@H](Cc4cnc[nH]4)NC(=O)[C@H](CCCCN)NC3=O)C(=O)N[C@@H](CCCNC(=N)N)C(=O)N[C@@H](CCCCN)C(=O)N[C@@H]([C@@H](C)O)C(=O)N2)NC(=O)[C@H](CCCNC(=N)N)NC(=O)[C@H](CO)NC(=O)[C@H](CCCCN)NC(=O)[C@@H]2CCCN2C(=O)[C@H]([C@@H](C)CC)NC(=O)[C@H]([C@@H](C)O)NC(=O)[C@H](CC(=O)O)NC1=O
0.223 nM	0.221 nM	0.089 nM	CC[C@H](C)[C@@H]1NC(=O)[C@@H](NC(=O)[C@H](CO)NC(=O)[C@@H](N)CCCNC(=N)N)CSSC[C@@H](C(=O)O)NC(=O)[C@H]([C@@H](C)O)NC(=O)[C@H](CCCNC(=N)N)NC(=O)[C@@H]2CSSC[C@@H]3NC(=O)[C@H](CCC(N)=O)NC(=O)[C@H](Cc4ccccc4)NC(=O)[C@H](C)NC(=O)[C@H]([C@@H](C)O)NC(=O)[C@H](CSSC[C@H](NC(=O)[C@H](Cc4ccccc4)NC(=O)[C@H](CO)NC(=O)[C@H](CC(C)C)NC(=O)[C@H](CCCNC(=N)N)NC(=O)[C@H](Cc4ccc(O)cc4)NC(=O)[C@H](CCCCN)NC(=O)[C@H](CCSC)NC(=O)[C@H](CO)NC(=O)[C@H](Cc4cnc[nH]4)NC(=O)[C@H](CCCCN)NC3=O)C(=O)N[C@@H](CCCNC(=N)N)C(=O)N[C@@H](CCCCN)C(=O)N[C@@H]([C@@H](C)O)C(=O)N2)NC(=O)[C@H](CCCNC(=N)N)NC(=O)[C@H](CO)NC(=O)[C@H](CCCCN)NC(=O)[C@@H]2CCCN2C(=O)[C@H]([C@@H](C)CC)NC(=O)[C@H]([C@@H](C)O)NC(=O)[C@H](CC(=O)O)NC1=O
